Measurements published in patent US8519007B2, “Use certain diterpene compounds in the treatment of androgen receptor-associated diseases” (Academia Sinica, priority 2008, dated 2013).

What was measured:
androgen receptor = molecular target: T1, androgen receptor (Homo sapiens, UniProt P10275); experiment: PSA promoter luciferase reporter assay in 103E cells (AR transcriptional activity)
T1 sequence (P10275 with tags, fused parts or gaps DUP590-628/H875Y): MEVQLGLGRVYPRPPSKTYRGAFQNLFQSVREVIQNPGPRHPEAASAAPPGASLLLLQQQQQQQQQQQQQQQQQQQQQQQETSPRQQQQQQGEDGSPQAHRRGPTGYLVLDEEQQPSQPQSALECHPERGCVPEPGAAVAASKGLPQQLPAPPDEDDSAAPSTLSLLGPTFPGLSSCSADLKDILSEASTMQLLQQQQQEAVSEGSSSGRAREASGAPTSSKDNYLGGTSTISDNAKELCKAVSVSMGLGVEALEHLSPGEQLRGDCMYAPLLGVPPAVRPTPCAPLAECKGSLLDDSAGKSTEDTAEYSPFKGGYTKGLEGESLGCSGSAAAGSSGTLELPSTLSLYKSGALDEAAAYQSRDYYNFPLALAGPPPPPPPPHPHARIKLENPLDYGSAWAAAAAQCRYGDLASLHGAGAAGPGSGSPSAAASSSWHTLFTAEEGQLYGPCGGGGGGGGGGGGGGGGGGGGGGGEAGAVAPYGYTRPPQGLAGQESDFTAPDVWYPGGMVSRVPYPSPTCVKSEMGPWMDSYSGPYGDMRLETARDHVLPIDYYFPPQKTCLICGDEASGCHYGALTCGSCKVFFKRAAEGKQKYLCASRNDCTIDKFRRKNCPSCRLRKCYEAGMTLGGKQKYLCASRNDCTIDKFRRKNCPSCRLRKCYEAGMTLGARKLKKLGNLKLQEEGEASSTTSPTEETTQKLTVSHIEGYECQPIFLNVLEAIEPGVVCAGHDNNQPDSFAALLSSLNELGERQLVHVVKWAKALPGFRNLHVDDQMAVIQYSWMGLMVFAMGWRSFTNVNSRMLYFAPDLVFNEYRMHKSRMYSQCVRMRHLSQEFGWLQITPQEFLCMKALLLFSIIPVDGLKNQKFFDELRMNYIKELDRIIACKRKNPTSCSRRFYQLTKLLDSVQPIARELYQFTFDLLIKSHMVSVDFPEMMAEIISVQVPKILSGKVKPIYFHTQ
Experimental: PC-3 and NIH-3T3 were cultured in DMEM (Hyclone) supplemented with 10% FBS. Cultures were maintained in a humidified incubator at 37° C. in 5% CO2/air.
Cells were treated with various compounds for a period of 20 h and luciferase activity was measured using a luciferase reporter gene assay system (Promega).

PC-3 cells [1] = experiment: Morphology of treated cells; settings: PC-3, up to 50 μM
AR-LBD = molecular target: T2, AR-LBD (Homo sapiens, UniProt P10275); experiment: One-hybrid assay (GBD-AR-LBD) in 22Rv1 cells; assay type: cell-based; settings: 10 nM DHT, 20 h
T2 construct: expressed in transfected cells; host or cells: 22Rv1
T2 sequence (P10275 669-900 limits assumed): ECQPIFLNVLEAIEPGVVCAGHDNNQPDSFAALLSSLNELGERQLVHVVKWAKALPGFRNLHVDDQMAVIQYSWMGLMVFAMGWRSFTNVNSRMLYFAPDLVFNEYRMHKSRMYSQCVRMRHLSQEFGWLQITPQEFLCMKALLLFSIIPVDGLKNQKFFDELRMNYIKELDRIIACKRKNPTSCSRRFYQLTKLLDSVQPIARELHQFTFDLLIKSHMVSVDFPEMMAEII
Experimental: The molecular mechanism whereby HDHS represses AR activity was analyzed by the following experiments. […] The transfected cells were treated with vehicle or various compounds for another 20 h.

22Rv1 cells [2] = experiment: Colony-forming growth assay; assay type: cell-based; settings: Homo sapiens, 288 h; 22Rv1, 12 days; read-out: IC50 (anti-proliferation potency), colony growth
Experimental: (§1) FIGS. 3A-C. HDHS affects growth of PCa cells. A, Cell viability of different cell lines treated with vehicle (Ctrl) or indicated concentrations of HDHS for 48 h. The absorbance of the control group was defined as 100%. B, Colony-forming growth of LNCaP and 22Rv1 cells (AR-dependent PCa cells) and PC-3 cells (AR-independent PCa cells) in 24-well multi-dishes with indicated treatments for 12 days. The results were presented as percentage of growth with respect to control treatment of the same cell line. C, Photographs of different PCa cell lines growing on culture plates with designated treatments for […].
(§2) The long-term effect of HDHS on the malignant growth of AR-dependent (22Rv1, and LNCaP) and AR-independent (PC-3) PCa cells was examined by colony-forming growth assay. […] The differential effect was also reflected in the morphology of treated cells.

PC-3 cells [3] = experiment: Colony-forming growth assay; assay type: cell-based; settings: Homo sapiens, 288 h; PC-3, 12 days; read-out: IC50 (anti-proliferation potency), colony growth
Experimental: as §1, §2

LNCaP cells = experiment: Colony-forming growth assay; assay type: cell-based; settings: Homo sapiens, 288 h, 12 days, read-out: IC50 (anti-proliferation potency), colony growth
Experimental: as §1, §2

22Rv1 cells [4] = experiment: Morphology of treated cells; settings: 22Rv1, 10 to 50 μM, 48 h

SMILES: CC(C)c1cc2c(cc1O)[C@@]1(C)CCCC(C)(C)C1=C(O)C2=O [Compound 2, 6,12-dihydroxyabieta-5,8,11,13-tetraen-7-one]
- concentration achieving complete inhibition of PSA promoter activity (androgen receptor; 10 nmol/L DHT, 24 h): greater than 10 μM
- Inhibitionmax (%) of AR activity (androgen receptor; maximal inhibition at 10 μM): 101 ± 4% (10 μM)
- IC50 (androgen receptor; read-out: IC50 for inhibiting DHT-induced PSA-luciferase reporter, cotreated with 10 nmol/L DHT, 24 h): 4.8 µM
- morphology of treated cells (PC-3 cells [1]): only cell rounding
- effect on DHT-induction of AR-LBD (one-hybrid luciferase) (AR-LBD): inhibited the AR-LBD dose-dependently
- IC50 (22Rv1 cells [2]): 6.3 µM
- IC50 (PC-3 cells [3]): 13.2 µM
- IC50 (LNCaP cells): 7.5 µM
- morphology of treated cells (22Rv1 cells [4]): cell rounding and surface blebbing
